Source: US6900193B1, “Structural modification of 19-norprogesterone I: 17-α-substituted-11-β-substituted-4-aryl and 21-substituted 19-norpregnadienedione as new antiprogestational agents” (The United States of America as represented by the …, priority 1996, dated 2005)
Marks after values point to notes of the source that are not given here.

Experiments:
[1] = system: progesterone-induced endometrial proliferation; assay: AntiClauberg test; format: in vivo, rabbit; conditions: Table 2, CDB-2914 = 100 (assigned)
Outline: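 Immature NZW rabbits were estradiol-primed s.c. for 6 days, then given progesterone 0.8 mg/day s.c. plus compound orally or s.c. for 5 days. Uteri were sectioned and H&E-scored for endometrial glandular proliferation (McPhail). Percent inhibition was calculated per dose versus progesterone-only animals.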

[2] = system: pregnancy (number and condition of conceptuses); assay: Postcoital test; format: in vivo, rat; conditions: rat, days 4-6 subcu
[3] = molecular target: T1, progesterone receptor (estrogen-primed rabbit uterus) (Oryctolagus cuniculus, UniProt P06186); assay: Relative binding affinity, progesterone receptor; conditions: Table 2; estrogen-primed rabbit uterus; progesterone = 100%
T1 construct: preparation of cytosols for the progesterone and glucocorticoid receptor assays; from tissue; host or cells: uterus of estradiol-primed immature female New Zealand White rabbits (cytosol)
T1 sequence (P06186 1-930): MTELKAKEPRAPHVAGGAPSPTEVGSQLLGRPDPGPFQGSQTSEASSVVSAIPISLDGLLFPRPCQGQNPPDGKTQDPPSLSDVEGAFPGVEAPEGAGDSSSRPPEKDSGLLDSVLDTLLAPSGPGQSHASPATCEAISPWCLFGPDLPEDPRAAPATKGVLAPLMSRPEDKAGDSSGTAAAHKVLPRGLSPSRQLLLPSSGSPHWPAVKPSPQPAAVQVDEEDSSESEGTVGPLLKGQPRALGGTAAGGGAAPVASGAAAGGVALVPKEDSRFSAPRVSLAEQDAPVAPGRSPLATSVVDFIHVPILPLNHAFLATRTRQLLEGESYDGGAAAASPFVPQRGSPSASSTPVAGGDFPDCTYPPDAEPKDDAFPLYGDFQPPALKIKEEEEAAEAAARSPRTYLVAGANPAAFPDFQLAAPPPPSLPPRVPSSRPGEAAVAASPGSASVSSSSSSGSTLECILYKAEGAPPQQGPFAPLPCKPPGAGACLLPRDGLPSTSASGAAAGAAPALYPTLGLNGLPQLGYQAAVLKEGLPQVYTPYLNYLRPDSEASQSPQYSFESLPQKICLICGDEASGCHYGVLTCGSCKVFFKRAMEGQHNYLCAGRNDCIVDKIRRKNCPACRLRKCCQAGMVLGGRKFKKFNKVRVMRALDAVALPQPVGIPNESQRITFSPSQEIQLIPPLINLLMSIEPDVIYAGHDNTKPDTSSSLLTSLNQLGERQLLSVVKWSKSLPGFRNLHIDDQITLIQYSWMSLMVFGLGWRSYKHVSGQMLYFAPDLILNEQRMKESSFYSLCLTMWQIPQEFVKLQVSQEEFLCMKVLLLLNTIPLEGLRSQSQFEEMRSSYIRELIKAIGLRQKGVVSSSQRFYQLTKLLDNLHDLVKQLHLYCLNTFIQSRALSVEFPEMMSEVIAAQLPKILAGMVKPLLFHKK

[4] = molecular target: T2, glucocorticoid receptor (estrogen-primed rabbit thymus) (Oryctolagus cuniculus, UniProt P59667); assay: Relative binding affinity, glucocorticoid receptor; conditions: Table 2; estrogen-primed rabbit thymus; dexamethasone = 100%
T2 construct: preparation of cytosols for the progesterone and glucocorticoid receptor assays; from tissue; host or cells: thymus of estradiol-primed immature female New Zealand White rabbits (cytosol)
T2 sequence (P59667 1-772): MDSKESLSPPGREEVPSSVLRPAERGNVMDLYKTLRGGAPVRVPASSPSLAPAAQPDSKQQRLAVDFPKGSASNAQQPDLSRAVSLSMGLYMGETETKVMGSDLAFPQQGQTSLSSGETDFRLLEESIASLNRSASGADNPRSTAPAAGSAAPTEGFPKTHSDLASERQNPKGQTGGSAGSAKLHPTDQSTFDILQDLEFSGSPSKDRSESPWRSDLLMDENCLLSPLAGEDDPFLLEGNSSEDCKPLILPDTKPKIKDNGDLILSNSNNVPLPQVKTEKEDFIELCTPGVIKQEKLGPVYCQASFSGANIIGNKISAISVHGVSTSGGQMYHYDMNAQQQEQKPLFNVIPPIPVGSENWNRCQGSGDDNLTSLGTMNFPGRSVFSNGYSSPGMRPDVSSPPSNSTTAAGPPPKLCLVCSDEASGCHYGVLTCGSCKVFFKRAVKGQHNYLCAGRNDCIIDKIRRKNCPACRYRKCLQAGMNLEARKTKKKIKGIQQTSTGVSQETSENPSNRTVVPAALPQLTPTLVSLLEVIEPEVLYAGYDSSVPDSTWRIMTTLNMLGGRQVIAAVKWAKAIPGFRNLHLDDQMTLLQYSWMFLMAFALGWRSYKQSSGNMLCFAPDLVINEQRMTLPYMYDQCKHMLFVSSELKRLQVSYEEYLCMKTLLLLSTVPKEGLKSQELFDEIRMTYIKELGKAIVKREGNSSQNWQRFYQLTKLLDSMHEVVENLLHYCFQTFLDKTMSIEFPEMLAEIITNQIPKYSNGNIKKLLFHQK

Row | BINDING AFFINITY Progester [3] | BINDING AFFINITY Glucocortic [4] | Structure (SMILES) | BIOLOGICAL ACTIVITY antiClauberg ([1]; oral) | Postcoital MED100 (*) [2] | BIOLOGICAL ACTIVITY antiClauberg (subcu) ([1]; subcutaneous)
1 | 91% | 49% | CCC(=O)OC1(C(C)=O)CCC2C3CCC4=CC(=O)CCC4=C3C(c3ccc(N(C)C)cc3)CC21C (stereo not drawn) [Compound 69C, 17α-Propionoxy-11β-[4-(N,N-dimethylamino)phenyl]-19-norpregna-4,9-diene-3,20-dione] | ˜10 | 2* mg/day | –
2 | 40% | 89% | CCCCCCC(=O)O[C@]1(C(C)=O)CC[C@H]2[C@@H]3CCC4=CC(=O)CCC4=C3[C@@H](c3ccc(N(C)C)cc3)C[C@@]21C [Compound 69D, 17α-Heptanoyloxy-11β-[4-(N,N-dimethylamino)phenyl]-19-norpregna-4,9-diene-3,20-dione] | – | inac- | weak
